Activity calls are given as the source filed them. The calls are words filed in the database; no cut-off is given here.
Experiments:
AML12 [1] = test: Effect on lipid accumulation in oleic and palmitic acid induced mouse AML12 cells assessed as decrease in triglyceride level at 3 to 30 uM; assay type: functional, cell-based; conditions: dose 3-30 µM
AML12 [2] = test: Effect on lipid accumulation in oleic and palmitic acid induced mouse AML12 cells assessed as decrease in total cholesterol level at 3 to 30 uM; assay type: functional, cell-based; conditions: dose 3-30 µM
AML12 [3] = test: Effect on lipid accumulation in oleic and palmitic acid induced mouse AML12 cells assessed as decrease in total cholesterol level; assay type: functional, cell-based; conditions: dose 3-30 µM
AML12 [4] = test: Effect on lipid accumulation in oleic and palmitic acid induced mouse AML12 cells assessed as decrease in triglyceride level; assay type: functional, cell-based; conditions: dose 3-30 µM
[5] = tested on: O=C(O)CC(O)(CCc1ccc(-c2ccccc2)cc1)C(=O)O; test: Binding affinity to SLC13A5 (unknown origin) assessed as Km; conditions: Homo sapiens

Na(+)/citrate cotransporter (Homo sapiens), Q86YT5, sequence (Q86YT5 whole entry): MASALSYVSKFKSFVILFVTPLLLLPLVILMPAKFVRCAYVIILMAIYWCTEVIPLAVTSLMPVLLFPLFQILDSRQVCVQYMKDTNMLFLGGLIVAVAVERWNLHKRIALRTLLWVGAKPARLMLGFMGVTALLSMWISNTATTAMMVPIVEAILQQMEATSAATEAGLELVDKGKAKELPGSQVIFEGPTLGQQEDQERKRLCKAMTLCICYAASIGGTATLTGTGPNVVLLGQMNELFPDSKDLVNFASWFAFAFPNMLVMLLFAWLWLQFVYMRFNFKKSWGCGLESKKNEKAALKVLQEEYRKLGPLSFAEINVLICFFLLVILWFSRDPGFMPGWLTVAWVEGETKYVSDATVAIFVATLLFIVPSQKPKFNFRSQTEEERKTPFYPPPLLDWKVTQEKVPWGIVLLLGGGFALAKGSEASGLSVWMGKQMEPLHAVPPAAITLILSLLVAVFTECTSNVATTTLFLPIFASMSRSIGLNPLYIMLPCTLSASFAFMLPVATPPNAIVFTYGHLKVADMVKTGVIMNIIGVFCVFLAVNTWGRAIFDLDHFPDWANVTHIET

CC(C)(C)c1ccc(CC[C@@](O)(CC(=O)O)C(=O)O)cc1
Activity (AML12 [1]): inactive | Activity (AML12 [2]): inactive

CCn1nccc1-c1ccc(CCC(O)(CC(=O)O)C(=O)O)cc1 (stereo unspecified)
Activity (AML12 [1]): inactive | Activity (AML12 [3]): Dose-Dependent Effect

COc1ccccc1-c1ccc(CCC(O)(CC(=O)O)C(=O)O)cc1 (stereo unspecified)
Activity (AML12 [4]): Dose-Dependent Effect | Activity (AML12 [3]): Dose-Dependent Effect

O=C(O)CC(O)(CCc1ccc2ccccc2c1)C(=O)O (stereo unspecified)
Activity (AML12 [4]): Dose-Dependent Effect | Activity (AML12 [3]): Dose-Dependent Effect

Na(+)/citrate cotransporter (Homo sapiens), Q86YT5
Km [5]: 0.19 µM

O=C(O)CC(O)(CCc1nc2ccccc2s1)C(=O)O (stereo unspecified)
Activity (AML12 [1]): inactive | Activity (AML12 [3]): Dose-Dependent Effect
